Read-outs that look alike come from different tables or passages of the source. Marks after values point to notes of the source that are not given here.
Assays:
[1] = system: Sa37 sarcoma; experiment: Antitumour activity in S37 ascites sarcoma bearing mice (tumour weight, total ascitocrit, survival); format: in vivo, mice H; details: for mean value of the tumour weight in comparison with the untreated control group / mean value of tumour cell fraction in ascites fluid (total ascitocrit) in comparison with the untreated control group: eight daily doses; for Survival time (T/C, %) / Total ascitocrit (T/C, %) / Tumour weight (T/C, %): administered in four days
Text: (§1) The antineoplastic activity of the compounds of the invention has been investigated testing the compounds of the chemical group "in vivo" against experimental rodent tumors such as the solid form of Ehrlich tumour (STE, originally mammary adenocarcinoma), tumor HK (also transplantable originally mammary adenocarcinoma), Krebs' ascites tumour (Kr2), S37 ascites sarcoma, Nemeth-Keller lymphoma (NK), all maintained in mice H, Gardner lymphosarcoma (LsG, maintained in mice C3H), P388 and/or L1210 leukemia (maintained in DBA2 mice), B16 metastasizing melanocarcinoma (maintained in C57B1/6 mice) and Yoshida ascites reticulosarcoma (Y, maintained in Wistar rats) in experiments according to Jelinek, V. [Neoplasma 12, 469 (1965); ibid 7, 146 (1960)] and in "in vitro" experiments using radioactive precursors of nucleic acids and proteins according to Miko, M. et al. [Cancer Res 39, 4242 (1979); Neoplasma 26, 449 (1979); ibid 16, 161 (1969)] with minor modifications [Mattern, J.: Studies on the Drug Sensitivity of Short Term Cultured Tumour Cell Suspensions. In "Human Tumours in Short Term Culture" (Dendy, P.P. ed.), p.301, Academic Press 1976]. The Cox's proportional-hazards model was used for survival evaluation and optimal dose calculation according to Carter, V.H. et al. [cf Cancer Res. 42, 2963 (1982)].
Eighty female mice H weighing approximately 20 g were divided into four groups: one control group and three experimental groups of 20 animal each. A lethal dose of the Sa37 sarcoma ascitic fluid was implanted intraperitoneally to all the animals. The animals of test groups were treated using the compound suspended in water. The suspension contained the substance in such a concentration that dose 0.6, 0.4 and/or 0.2ml of the suspension p.o. was equal to dose 240, 160 and/or 80 mg/kg p.o., respectively. The drug was administered to the experimental animals once, a day after tumour transplantation. On the tenth day after the tumour transplantation, half of the animals in each group were killed by ether anaesthesia, ascites were emptied after laparotomia and the tumour weight was assessed in all animals from the weight difference before and after laparotomia and ascites removing. In ascites fluid the volume of tumour cell fraction was determined. The remaining animals were left to monitor the time of death and survival time was followed. […] It was also observed that the treated animals survived longer than untreated control animals. […] The results of the experiment are summarized in the following table: Antitumour activity of 6-[2-(2-hydroxyethyl)aminoethyl]5,11-dioxo-5,6-dihydro-11H-indeno[1,2-c]isoquinoline (the substance I, X=2) in S37 sarcoma bearing mice.
In an analogous experiment carried out on the animals with implanted Sa37 sarcoma the substance I (X=2) was administered in seven daily doses, and the substance I (X=3) in four days. The results of the experiment are summarized in the following table: Antitumour activity of 6-[2-(2-hydroxyethyl)aminoethyl]5,11-dioxo-5,6-dihydro-11H-indeno[1,2-c]isoquinoline (the substance I, X=2) and 6-[3-(2-hydroxyethyl)aminopropyl]5,11-dioxo-5,6-dihydro-11H-indeno[1,2-c]isoquinoline (the substance I, X=3) in S37 bearing mice.
In an experiment carried out on the animals with implanted Sa37 sarcoma the substance I (X=0) was administered in eight daily doses (analogously as in example 6).

[2] = system: Ehrlich tumour; experiment: Antitumour activity against solid form of Ehrlich tumour in mice (tumour weight, survival); format: in vivo, mice H
Text: as §1
Sixty female mice H weighing approximately 20 g were divided into three groups: one control group and two experimental groups of 20 animal each. A lethal dose of the 40 Ehrlich tumour homogenate was implanted subcutaneously to all the animals. The animals of test groups were treated using the compounds suspended in water. […] On the fourteenth day after the tumour transplantation, half of the animals in each group were killed by ether anaesthesia, tumours were removed and weighed. The remaining animals were left to monitor the time of death and survival time was followed. […] It was also observed that the treated animals survived longer than untreated control animals.

[3] = system: Yoshida ascites cells; experiment: Cytotoxicity: incorporation of [3H]thymidine and [14C]uridine into trichloroacetic acid-insoluble fraction of cells; format: cell-based, Wistar rats
Text: The degree of influence on the incorporation of [^3H]thymidine and [^14C]uridine into the fraction of Yoshida ascites cells insoluble in trichloroacetic acid serves as the measure of cytotoxicity.

[4] = system: leukemia P388; experiment: Survival of mice with leukemia P388 after intravenous administration; format: in vivo; details: mice DBA2 with leukemia P388
Text: as §1, with “(1982)]. […]” for “(1982)].”

O=C1c2ccccc2-c2c1c1ccccc1c(=O)n2NCCO [I (X=0), 6-[(2-hydroxyethyl)amino]-5,11-dioxo-5,6-dihydro-11H-indeno[1,2-c]isoquinoline]
mean value of the tumour weight in comparison with the untreated control group ([1]; 20 mg/kg s.c.): 68%
mean value of tumour cell fraction in ascites fluid (total ascitocrit) in comparison with the untreated control group ([1]; 20 mg/kg s.c.): 71%
mean value of the tumour weight in comparison with the untreated control group ([1]; 50 mg/kg p.o.): 60%
mean value of tumour cell fraction in ascites fluid (total ascitocrit) in comparison with the untreated control group ([1]; 50 mg/kg p.o.): 68%
mean tumour weight lowered by ([2]; 50 mg/kg p.o. x 8, starting on the first day after tumour transplantation): 13%
Mean survival time in comparison with the untreated control group ([2]; eight daily doses of 25 mg/kg p.o.): 115%
mean tumour weight in the treated animals in comparison with the untreated control group ([2]; single dose of 100 mg/kg p.o.): 72%

O=C1c2ccccc2-c2c1c1ccccc1c(=O)n2CCCNCCO [I (X=3), 6-[3-(2-hydroxyethyl)aminopropyl]-5,11-dioxo-5,6-dihydro-11H-indeno[1,2-c]isoquinoline]
Survival time (T/C, %) ([1]; 10 mg/kg p.o.): 119%
Total ascitocrit (T/C, %) ([1]; 10 mg/kg p.o.): 80^a) %
Tumour weight (T/C, %) ([1]; 10 mg/kg p.o.): 70^b) %
Survival time (T/C, %) ([1]; 20 mg/kg p.o.): 99%
Total ascitocrit (T/C, %) ([1]; 20 mg/kg p.o.): 62^c) %
Tumour weight (T/C, %) ([1]; 20 mg/kg p.o.): 56^c) %
Total ascitocrit (T/C, %) ([1]; 30 mg/kg p.o.): 43^b) %
Tumour weight (T/C, %) ([1]; 30 mg/kg p.o.): 35^b) %
Survival time (T/C, %) ([1]; 30 mg/kg p.o., tox - toxic dose): tox

COc1cccc2c1C(=O)c1c(O)c3c(c(O)c1C2=O)C[C@@](O)(C(=O)CO)C[C@@H]3O[C@H]1C[C@H](N)[C@H](O)[C@H](C)O1 [DOXORUBICIN]
IC50 ([3]; Rattus norvegicus, YOSHIDA, Precursor [6-3H]Thymidine): 16 µM
IC50 ([3]; Rattus norvegicus, YOSHIDA, Precursor [Uracil-U-14C]uridine): 8 µM

Cl.O=C1c2ccccc2-c2c1c1ccccc1c(=O)n2CCNCCO [I (X=2) Hydrochloride, 6-[2-(2-hydroxyethyl)aminoethyl]-5,11-dioxo-5,6-dihydro-11H-indeno[1,2-c]isoquinoline hydrochloride]
IC50 ([3]; Rattus norvegicus, YOSHIDA, Precursor [6-3H]Thymidine, read-out: IC 50): 5 µM
IC50 ([3]; Rattus norvegicus, YOSHIDA, Precursor [Uracil-U-14C]uridine, read-out: IC 50): 7 µM
survival [4]: highly significant increase of survival

MITOXANTRON
IC50 ([3]; Precursor [6-3H]Thymidine, read-out: IC 50): 25 µM
IC50 ([3]; Precursor [Uracil-U-14C]uridine, read-out: IC 50): 23 µM

— EP0643699B1, “6-(2-HYDROXYETHYLAMINOALKYL)-5,11-DIOXO-5,6-DIHYDRO-11H- INDENO[1,2-C]ISOQUINOLINES AND THEIR USE AS ANTINEOPLASTIC AGENTS” (priority 1991, dated 1993)
